Data on one molecule can be found in patent US9732091B2, “Tryptophanol-derived oxazoloisoindolinones: small-molecule P53 activators” (UNIVERSIDADE DO PORTO, priority 2013, dated 2017).

In one experiment the test system is HCT116 p53^+/+ tumors. The experiment can be described thus: xenograft mouse model, HCT116 p53^+/+ tumors. The note with it: four intraperitoneal injections of 50 mg/kg, vs vehicle, preliminary. Format: in vivo, BALB/c mice. As to the method: (§1) FIG. 10 illustrates the antitumor activity of SLMP53-1 in vivo. BALB/c mice, 4-6 weeks old, were implanted subcutaneous xenografts using 1.5×10^6 HCT116 p53^+/+ or HCT116 p53^−/− cells. The treatment was initiated when palpable tumors were established (14 days after the cells were injected), and consisted in 4 intraperitoneal injections (2× per week) of vehicle (control) or 50 mg/kg of SLMP53-1. Xenografts were measured during 24 days. Relative tumor volumes were plotted for control and treated groups by dividing the average tumor volume for each data point by average starting tumor volume.
(§2) Currently, the toxicity and antitumor activity of SLMP53-1 are under study in vivo using xenograft mouse models. […] Because p53-null tumors were not suppressed, it was confirmed that SLMP53-1 inhibited the tumor growth in a wt p53-dependent manner.

Another experiment has as its system HCT116 p53^−/− tumors. The experiment can be described thus: xenograft mouse model, HCT116 p53^−/− tumors. The note with it: four intraperitoneal injections of 50 mg/kg, preliminary. Format: in vivo, BALB/c mice. As to the method:
as §1, §2

The test system of experiment [1] is MDA-MB-231 breast tumor cells. The experiment can be described thus: Western blot of p53 and p53-target proteins, PARP cleavage, MDA-MB-231. The experiment is classed as cell-based, human. The note with it: 16.6 μM (GI50), 24/48 hours. The text has this: FIG. 7 illustrates that SLMP53-1 increases the levels of p53 and of proteins encoded by p53-target genes in MDA-MB-231 breast tumor cells.
For orientation: In western blotting, separated proteins are transferred to a membrane and probed.

A further experiment relates to HCT116 p53^−/−. The experiment can be described thus: Western blot of p53-target proteins, PARP cleavage, HCT116 p53^−/−. The experiment is classed as cell-based, human. The note with it: 15.5 μM. As to the method:
FIG. 2 illustrates that SLMP53-1 increases the levels of proteins encoded by p53 target genes (MDM2, p21, PUMA and BAX), and leads to PARP cleavage in colon carcinoma cells with wt p53 (HCT116 p53^+/+), but not in colon carcinoma cells without wt p53 (HCT116 p53^−/−). Western blot analysis was performed for human colon carcinoma cells after 16 (B, D, E) and 24 (A, C, F) hours treatment with 15.5 μM of SLMP53-1, 135 nM doxorubicin (DOXO; positive control) or DMSO only. The protein expression levels were evaluated by quantification of Western Blot band intensity (with Bio-Profile Bio-1D++ software) using GAPDH as loading control.

Another experiment deals with T1, mutant p53 R273H (Homo sapiens, UniProt P04637, R273H).
T1 construct: expressed in transfected cells
The experiment can be described thus: reactivation of mutant p53 in yeast (growth, CFU), R273H. The experiment is classed as cell-based. The note with it: 10 μM; yeast expressing R273H; 44 hours. As for the experimental part: FIG. 6 illustrates that SLMP53-1 reactivates mutant p53s R273H, R175H and R280K in yeast. Yeast cells expressing R273H, R280K, Y220C or R175H were incubated in selective medium with 10 μM of SLMP53-1, 10 μM of CP-31398 (for R273H), 10 μM of PRIMA-1 (for R175H and R280K), 50 μM of PhiKan 083 (for Y220C) or DMSO only, for 44 hours. CP-31398, PRIMA-1 and PhiKan 083 were used as positive controls. Results are plotted setting as 100% growth the number of CFU obtained in the presence of DMSO only.
It is also shown that SLMP53-1 can reactivate some mutant p53 forms, particularly R273H, R280K and R175H (FIG. 6).

In the next experiment the test system is HCT116 p53^+/+. The experiment can be described thus: SRB growth inhibition assay in HCT116 p53^+/+ colon carcinoma cells. Format: cell-based, human. As to the method: Tumor cells were plated at 5.0×10^3 cells/well in 96-well plates and incubated for 24 hours. Cells were then exposed to serial dilutions of SLMP53-1, CP-31398 or PRIMA-1 (from 1.85 to 150 μM). The effect of the compounds was analyzed following 48 hours incubation, using the sulforhodamine B (SRB) assay. The solvent DMSO corresponding to the maximum concentration used in these assays (0.025%) was included as control. The GI50 value, the concentration of compound that causes 50% growth inhibition, was calculated for the tested compounds. Results are the mean±S.E.M. of three independent experiments.

Experiment [2] concerns MDA-MB-231 cells (mutant p53 R280K). Put plainly: sensitization to etoposide and doxorubicin, SRB assay, MDA-MB-231. Format: cell-based, human. As for the experimental part: FIG. 9 illustrates that SLMP53-1 sensitizes breast cancer MDA-MB-231 cells to the effects of etoposide and doxorubicin. The MDA-MB-231 tumor cells (with the mutant p53 R280K) were treated for 48 hours with increasing concentrations of etoposide ([…] to 6.00 μM) or doxorubicin (187.5 to 750.0 nM) in the presence of a very low concentration (between GI5 to GI10; 4 μM) of SLMP53-1 or with DMSO only. Effect of compounds on cell growth was analyzed following 48 hours incubation, using the sulforhodamine B (SRB) assay. Results are mean±SEM of three to four independent experiments.
It was also investigated if SLMP53-1 increased the sensitivity of MDA-MB-231 cells to the effects of various concentrations of etoposide (0.38 to 6.00 μM) and doxorubicin (187.5 to 750.0 nM). For that, a low concentration of SLMP53-1 (approximately the GI5 to GI10 concentration; 4 μM; without significant anti-proliferative effects on tumor cell lines) was used. […] Particularly, for 0.38 μM etoposide (for which an anti-proliferative effect is not observed), a 25% decrease of tumor cell growth was obtained in the presence of 4 μM of SLMP53-1.
On the technique in general: Sulforhodamine B stains cellular protein and so reports cell mass.

The mark [3] stands for this setting: HCT116 p53^+/+ vs HCT116 p53^−/−.

Structures are written as SMILES.

One may read the GI50 as the concentration at which growth is held to half of that of the control. The low end stands for more potent growth inhibition, the high end for less potent growth inhibition. `C[C@]12OC[C@H](Cc3c[nH]c4ccccc34)N1C(=O)c1ccccc12` [SLMP53-1]: the tumor growth entry with HCT116 p53^+/+ tumors is “considerably suppressed”. The tumor growth result in the experiment on HCT116 p53^−/− tumors is reported as “without apparent effects”. In experiment [1], the PARP cleavage entry is reported as “lead to PARP cleavage”; the “levels of p53 and of BAX, PUMA and p21” value is reported as “increased”. In the experiment on HCT116 p53^−/−, the PARP cleavage entry is given as “did not induce PARP cleavage”; the “expression levels of MDM2, p21, PUMA and Bax” value is “did not interfere”. The yeast growth inhibition entry at mutant p53 R273H is given as “significant growth inhibition”. Further, in the experiment on HCT116 p53^+/+ (setting [3]), the “GI50 in HCT116 p53^+/+ cells lower than in HCT116 p53^−/− cells” value was found to be 2 fold and the “p53 dependence of anti-proliferative effect” value was “p53-dependent anti-proliferative effect”. The molecule also registered a GI50 with HCT116 p53^+/+ (Homo sapiens, HCT-116, HCT116 p53^+/+, 48 hours incubation, SRB, mean±S.E.M.) of 15.5 ± 1.6 µM. For the same molecule, the “decrease of tumor cell growth” value in experiment [2] (0.38 μM etoposide in the presence of 4 μM of SLMP53-1) is on record as 25%. For the same molecule, the etoposide/doxorubicin-induced growth inhibition entry in experiment [2] (4 μM SLMP53-1, three concentrations tested, 48 hours) is “increased”.
